Laboratory results: BindingDB's records for doi:10.1021/jm00072a019 (J. Uriach & Cía., 1993)

Test: Inhibition of PAF-induced platelet aggregation

Row | SMILES | IC50 [nM]
1 | Cc1ncccc1C(C#N)N1CCN(C(=O)CC(c2ccccc2)N(Cc2ccccc2)Cc2ccccc2)CC1 (stereo not given) [[4-(3-Dibenzylamino-3-phenyl-propionyl)-piperazin-1-yl]-(2-methyl-pyridin-3-yl)-acetonitrile] | 41
2 | Cc1ncccc1C(C#N)N1CCN(C(=O)CC(NC(=O)OC(C)(C)C)c2ccccc2)CC1 (stereo not given) [(3-{4-[Cyano-(2-methyl-pyridin-3-yl)-methyl]-piperazin-1-yl}-3-oxo-1-phenyl-propyl)-carbamic acid tert-butyl ester] | 56
3 | Cc1ncccc1C(C#N)N1CCN(C(=O)[C@@H](C)NC(c2ccccc2)c2ccccc2)CC1 (stereo not given in full) [{4-[2-(Benzhydryl-amino)-propionyl]-piperazin-1-yl}-(2-methyl-pyridin-3-yl)-acetonitrile] | 30
4 | COC(=O)NC(CC(=O)N1CCN(C(C#N)c2cccnc2C)CC1)c1ccccc1 (stereo not given) [(3-{4-[Cyano-(2-methyl-pyridin-3-yl)-methyl]-piperazin-1-yl}-3-oxo-1-phenyl-propyl)-carbamic acid methyl ester] | 41
5 | Cc1ncccc1C(C#N)N1CCN(C(=O)CC(NCc2cccnc2)c2ccccc2)CC1 (stereo not given) [(2-Methyl-pyridin-3-yl)-(4-{3-phenyl-3-[(pyridin-3-ylmethyl)-amino]-propionyl}-piperazin-1-yl)-acetonitrile] | 75
6 | CNC(=O)C(CC(=O)N1CCN(C(C#N)c2cccnc2C)CC1)c1ccccc1 (stereo not given) [4-{4-[Cyano-(2-methyl-pyridin-3-yl)-methyl]-piperazin-1-yl}-N-methyl-4-oxo-2-phenyl-butyramide] | 15200
7 | Cc1ncccc1C(C#N)N1CCN(C(=O)CC(N)c2ccccc2)CC1 (stereo not given) [[4-(3-Amino-3-phenyl-propionyl)-piperazin-1-yl]-(2-methyl-pyridin-3-yl)-acetonitrile] | 740
8 | Cc1ncccc1C(C#N)N1CCN(C(=O)CC(NC(=O)c2cccnc2)c2ccccc2)CC1 (stereo not given) [N-(3-{4-[Cyano-(2-methyl-pyridin-3-yl)-methyl]-piperazin-1-yl}-3-oxo-1-phenyl-propyl)-nicotinamide] | 8.9
9 | Cc1ncccc1C(C#N)N1CCN(C(=O)CNC(C)(c2ccccc2)c2ccccc2)CC1 (stereo not given) [{4-[2-(1,1-Diphenyl-ethylamino)-acetyl]-piperazin-1-yl}-(2-methyl-pyridin-3-yl)-acetonitrile] | 86
10 | Cc1ncccc1C(C#N)N1CCN(C(=O)CNC(c2ccc(F)cc2)c2ccc(F)cc2)CC1 (stereo not given) [[4-(2-{[Bis-(4-fluoro-phenyl)-methyl]-amino}-acetyl)-piperazin-1-yl]-(2-methyl-pyridin-3-yl)-acetonitrile] | 150
11 | Cc1ncccc1C(C#N)N1CCN(C(=O)CC(c2ccccc2)N2CCOC2=O)CC1 (stereo not given) [(2-Methyl-pyridin-3-yl)-{4-[3-(2-oxo-oxazolidin-3-yl)-3-phenyl-propionyl]-piperazin-1-yl}-acetonitrile] | 63
12 | Cc1ncccc1C(C#N)N1CCN(C(=O)CC(NC(=O)N2CCCC2)c2ccccc2)CC1 (stereo not given) [Pyrrolidine-1-carboxylic acid (3-{4-[cyano-(2-methyl-pyridin-3-yl)-methyl]-piperazin-1-yl}-3-oxo-1-phenyl-propyl)-amide] | 64
13 | Cc1ncccc1C(C#N)N1CCN(C(=O)CC(NCc2ccccc2)c2ccccc2)CC1 (stereo not given) [[4-(3-Benzylamino-3-phenyl-propionyl)-piperazin-1-yl]-(2-methyl-pyridin-3-yl)-acetonitrile] | 9.1
14 | Cc1ncccc1C(C#N)N1CCN(C(=O)CC(Nc2ccccc2)c2ccccc2)CC1 (stereo not given) [(2-Methyl-pyridin-3-yl)-[4-(3-phenyl-3-phenylamino-propionyl)-piperazin-1-yl]-acetonitrile] | 28
15 | Cc1ncccc1C(C#N)N1CCN(C(=O)CC(NC(=O)Oc2ccccc2)c2ccccc2)CC1 (stereo not given) [(3-{4-[Cyano-(2-methyl-pyridin-3-yl)-methyl]-piperazin-1-yl}-3-oxo-1-phenyl-propyl)-carbamic acid phenyl ester] | 16
16 | COC(=O)NC(CC(=O)N1CCN(C(C#N)c2cccnc2C)CC1)c1ccc(C(F)(F)F)cc1 (stereo not given) [[3-{4-[Cyano-(2-methyl-pyridin-3-yl)-methyl]-piperazin-1-yl}-3-oxo-1-(4-trifluoromethyl-phenyl)-propyl]-carbamic acid methyl ester] | 12
17 | Cc1ncccc1C(C#N)N1CCN(C(=O)CNC2c3ccccc3-c3ccccc32)CC1 (stereo not given) [{4-[2-(9H-Fluoren-9-ylamino)-acetyl]-piperazin-1-yl}-(2-methyl-pyridin-3-yl)-acetonitrile] | 50
18 | Cc1ncccc1C(C#N)N1CCN(C(=O)COC(c2ccccc2)c2ccccc2)CC1 (stereo not given) [[4-(2-Benzhydryloxy-acetyl)-piperazin-1-yl]-(2-methyl-pyridin-3-yl)-acetonitrile] | 42
19 | Cc1ncccc1C(C#N)N1CCN(C(=O)CC(c2ccccc2)N(C)Cc2ccccc2)CC1 (stereo not given) [{4-[3-(Benzyl-methyl-amino)-3-phenyl-propionyl]-piperazin-1-yl}-(2-methyl-pyridin-3-yl)-acetonitrile] | 20
20 | COC(=O)N(Cc1ccccc1)C(CC(=O)N1CCN(C(C#N)c2cccnc2C)CC1)c1ccccc1 (stereo not given) [Benzyl-(3-{4-[cyano-(2-methyl-pyridin-3-yl)-methyl]-piperazin-1-yl}-3-oxo-1-phenyl-propyl)-carbamic acid methyl ester] | 68

Row | SMILES | IC50 [nM]
21 | CCOC(=O)NC(CC(=O)N1CCN(C(C#N)c2cccnc2C)CC1)c1ccccc1 (stereo not given) [(3-{4-[Cyano-(2-methyl-pyridin-3-yl)-methyl]-piperazin-1-yl}-3-oxo-1-phenyl-propyl)-carbamic acid ethyl ester] | 14
22 | CC(=O)N(CC(=O)N1CCN(C(C#N)c2cccnc2C)CC1)C(c1ccccc1)c1ccccc1 (stereo not given) [N-Benzhydryl-N-(2-{4-[cyano-(2-methyl-pyridin-3-yl)-methyl]-piperazin-1-yl}-2-oxo-ethyl)-acetamide] | 20
23 | Cc1ncccc1C(C#N)N1CCN(C(=O)CC(O)(c2ccccc2)c2ccccc2)CC1 (stereo not given) [[4-(3-Hydroxy-3,3-diphenyl-propionyl)-piperazin-1-yl]-(2-methyl-pyridin-3-yl)-acetonitrile] | 17
24 | Cc1ncccc1C(C#N)N1CCN(C(=O)CC(c2ccccc2)c2ccccc2)CC1 (stereo not given) [[4-(3,3-Diphenyl-propionyl)-piperazin-1-yl]-(2-methyl-pyridin-3-yl)-acetonitrile] | 18
25 | Cc1ncccc1C(C#N)N1CCN(C(=O)CSC(c2ccccc2)c2ccccc2)CC1 (stereo not given) [[4-(2-Benzhydrylsulfanyl-acetyl)-piperazin-1-yl]-(2-methyl-pyridin-3-yl)-acetonitrile] | 79
26 | Cc1ncccc1C(C#N)N1CCN(C(=O)CC(c2ccccc2)N2CCCC2=O)CC1 (stereo not given) [(2-Methyl-pyridin-3-yl)-{4-[3-(2-oxo-pyrrolidin-1-yl)-3-phenyl-propionyl]-piperazin-1-yl}-acetonitrile] | 30
27 | Cc1ncccc1C(C#N)N1CCN(C(=O)C=C(c2ccccc2)c2ccccc2)CC1 (stereo not given) [[4-(3,3-Diphenyl-acryloyl)-piperazin-1-yl]-(2-methyl-pyridin-3-yl)-acetonitrile] | 26
28 | Cc1ncccc1C(C#N)N1CCN(C(=O)CNC(c2ccccc2)c2ccccc2)CC1 (stereo not given) [{4-[2-(Benzhydryl-amino)-acetyl]-piperazin-1-yl}-(2-methyl-pyridin-3-yl)-acetonitrile] | 40
29 | Cc1ncccc1C(C#N)N1CCN(C(=O)[C@H](CO)NC(c2ccccc2)c2ccccc2)CC1 (stereo not given in full) [{4-[2-(Benzhydryl-amino)-3-hydroxy-propionyl]-piperazin-1-yl}-(2-methyl-pyridin-3-yl)-acetonitrile] | 34
30 | Cc1ncccc1C(C#N)N1CCN(C(=O)[C@H](C)NC(c2ccccc2)c2ccccc2)CC1 (stereo not given in full) [{4-[2-(Benzhydryl-amino)-propionyl]-piperazin-1-yl}-(2-methyl-pyridin-3-yl)-acetonitrile] | 13
31 | Cc1ncccc1C(C#N)N1CCN(C(=O)C(C)(C)C(F)(c2ccccc2)c2ccccc2)CC1 (stereo not given) [[4-(3-Fluoro-2,2-dimethyl-3,3-diphenyl-propionyl)-piperazin-1-yl]-(2-methyl-pyridin-3-yl)-acetonitrile] | 26
32 | Cc1ncccc1C(C#N)N1CCN(C(=O)CN(C=O)C(c2ccccc2)c2ccccc2)CC1 (stereo not given) [N-Benzhydryl-N-(2-{4-[cyano-(2-methyl-pyridin-3-yl)-methyl]-piperazin-1-yl}-2-oxo-ethyl)-formamide] | 30
33 | COC(=O)N(C)C(CC(=O)N1CCN(C(C#N)c2cccnc2C)CC1)c1ccccc1 (stereo not given) [(3-{4-[Cyano-(2-methyl-pyridin-3-yl)-methyl]-piperazin-1-yl}-3-oxo-1-phenyl-propyl)-methyl-carbamic acid methyl ester] | 20
34 | C=CCNC(CC(=O)N1CCN(C(C#N)c2cccnc2C)CC1)c1ccccc1 (stereo not given) [[4-(3-Allylamino-3-phenyl-propionyl)-piperazin-1-yl]-(2-methyl-pyridin-3-yl)-acetonitrile] | 18
35 | C#CCNC(CC(=O)N1CCN(C(C#N)c2cccnc2C)CC1)c1ccccc1 (stereo not given) [(2-Methyl-pyridin-3-yl)-[4-(3-phenyl-3-prop-2-ynylamino-propionyl)-piperazin-1-yl]-acetonitrile] | 270
36 | CC(=O)NC(CC(=O)N1CCN(C(C#N)c2cccnc2C)CC1)c1ccccc1 (stereo not given) [N-(3-{4-[Cyano-(2-methyl-pyridin-3-yl)-methyl]-piperazin-1-yl}-3-oxo-1-phenyl-propyl)-acetamide] | 31
37 | Cc1ncccc1C(C#N)N1CCN(C(=O)CC(NC(=O)c2ccccc2)c2ccccc2)CC1 (stereo not given) [N-(3-{4-[Cyano-(2-methyl-pyridin-3-yl)-methyl]-piperazin-1-yl}-3-oxo-1-phenyl-propyl)-benzamide] | 9.1
38 | Cc1ncccc1C(C#N)N1CCN(C(=O)CCC(c2ccccc2)c2ccccc2)CC1 (stereo not given) [[4-(4,4-Diphenyl-butyryl)-piperazin-1-yl]-(2-methyl-pyridin-3-yl)-acetonitrile] | 80
39 | Cc1ncccc1C(C#N)N1CCN(C(=O)CC(NC(=O)OCc2ccccc2)c2ccccc2)CC1 (stereo not given) [(3-{4-[Cyano-(2-methyl-pyridin-3-yl)-methyl]-piperazin-1-yl}-3-oxo-1-phenyl-propyl)-carbamic acid benzyl ester] | 22
40 | Cc1ncccc1C(C#N)N1CCN(C(=O)CC(NC(=O)OCC(C)C)c2ccccc2)CC1 (stereo not given) [(3-{4-[Cyano-(2-methyl-pyridin-3-yl)-methyl]-piperazin-1-yl}-3-oxo-1-phenyl-propyl)-carbamic acid isobutyl ester] | 36
